Patent US20240109864A1, “SUBSTITUTED PYRAZOLYL PIPERIDINE CARBOXYLIC ACIDS” (BAYER AKTIENGESELLSCHAFT, priority 2020, published 2024)
Counter-ions that a name gives are not always drawn.

Target: T1, recombinant guanylate cyclase reporter cell line (Rattus norvegicus, UniProt P20595)
T1 construct: expressed in transfected cells
T1 sequence (P20595 1-619): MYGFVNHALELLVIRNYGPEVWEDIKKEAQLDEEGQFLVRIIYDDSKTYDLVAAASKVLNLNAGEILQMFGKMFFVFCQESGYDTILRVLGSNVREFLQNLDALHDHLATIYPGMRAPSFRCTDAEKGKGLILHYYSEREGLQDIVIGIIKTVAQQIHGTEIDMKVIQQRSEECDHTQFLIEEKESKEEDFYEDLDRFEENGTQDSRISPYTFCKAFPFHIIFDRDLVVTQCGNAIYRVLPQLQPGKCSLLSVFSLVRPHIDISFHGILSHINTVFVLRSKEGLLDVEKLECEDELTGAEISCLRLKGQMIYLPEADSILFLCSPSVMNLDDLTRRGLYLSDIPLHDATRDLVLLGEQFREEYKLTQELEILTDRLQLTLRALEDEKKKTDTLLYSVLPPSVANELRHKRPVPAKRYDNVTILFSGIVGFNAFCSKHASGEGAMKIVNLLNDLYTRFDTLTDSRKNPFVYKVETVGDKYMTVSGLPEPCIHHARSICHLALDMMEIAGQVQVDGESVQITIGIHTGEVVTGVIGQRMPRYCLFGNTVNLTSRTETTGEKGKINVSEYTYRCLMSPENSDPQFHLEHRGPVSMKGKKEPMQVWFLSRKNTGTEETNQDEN
T1 sequence (P19686 1-690 partner): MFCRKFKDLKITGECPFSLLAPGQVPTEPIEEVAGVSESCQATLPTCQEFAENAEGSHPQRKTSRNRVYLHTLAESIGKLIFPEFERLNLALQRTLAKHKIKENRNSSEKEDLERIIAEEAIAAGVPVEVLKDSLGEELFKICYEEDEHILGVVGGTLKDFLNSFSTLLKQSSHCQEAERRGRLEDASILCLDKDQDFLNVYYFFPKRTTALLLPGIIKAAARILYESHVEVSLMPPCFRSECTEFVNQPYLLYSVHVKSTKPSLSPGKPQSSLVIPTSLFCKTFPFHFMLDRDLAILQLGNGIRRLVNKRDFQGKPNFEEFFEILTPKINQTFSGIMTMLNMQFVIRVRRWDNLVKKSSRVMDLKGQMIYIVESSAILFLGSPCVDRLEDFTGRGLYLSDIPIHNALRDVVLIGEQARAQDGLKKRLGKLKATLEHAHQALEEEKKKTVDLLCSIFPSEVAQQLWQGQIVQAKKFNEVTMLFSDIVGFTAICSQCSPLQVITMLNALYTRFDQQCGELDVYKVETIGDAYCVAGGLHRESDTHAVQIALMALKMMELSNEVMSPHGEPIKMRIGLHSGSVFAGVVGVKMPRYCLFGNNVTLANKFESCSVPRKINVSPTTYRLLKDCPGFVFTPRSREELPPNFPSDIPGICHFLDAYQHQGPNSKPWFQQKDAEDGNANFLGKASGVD
Test: Effect on a recombinant guanylate cyclase reporter cell line
Type: cell-based
Conditions: in some cases mean values from individual determinations; for MEC: MEC = minimum effective concentration; for EC50: half maximal effective concentration
Method: The cellular activity of the compounds according to the invention was determined using a recombinant guanylate cyclase reporter cell line, as described in F. Wunder et al., Anal. Biochem. 339, 104-112 (2005).

`O=C(O)c1cnn(C2CCCN(c3cc(Cl)ccc3-c3ccc(C4CCN(C(=O)C5CC5)CC4)cc3)C2)c1C(F)(F)F` (single isomer, unassigned) [Example 84, 1-[1-[5-Chloro-2-[4-[1-(cyclopropanecarbonyl)-4-piperidyl]phenyl]phenyl]-3-piperidyl]-5-(trifluoromethyl)pyrazole-4-carboxylic acid hydrochloride] was tested, and the MEC (hydrochloride) was 0.3 nM and the EC50 was 2.5 nM.
Work on `CC(F)(F)CN1CCN(c2ccc(-c3ccc(Cl)cc3N3CCCC(n4ncc(C(=O)O)c4C(F)(F)F)C3)cc2)CC1` (single isomer, unassigned) [Example 11, 1-[1-[5-Chloro-2-[4-[4-(2,2-difluoropropyl)piperazin-1-yl]phenyl]phenyl]-3-piperidyl]-5-(trifluoromethyl)pyrazole-4-carboxylic acid hydrochloride] yielded an MEC of 0.3 nM and an EC50 of 1.4 nM.
`O=C(O)c1cnn(C2CCCN(c3cc(Cl)ccc3-c3ccc(N4CCN(C(=O)C5(F)CC5)CC4)cc3)C2)c1C(F)(F)F` (single isomer, unassigned) [Example 43, 1-[1-[5-Chloro-2-[4-[4-(1-fluorocyclopropanecarbonyl)piperazin-1-yl]phenyl]phenyl]-3-piperidyl]-5-(trifluoromethyl)pyrazole-4-carboxylic acid] showed an MEC of 1.0 nM and an EC50 of 15.1 nM.
`O=C(O)c1cnn(C2CCCN(c3cc(Cl)ccc3-c3ccc(N4CCN(CC(F)(F)F)CC4)cc3)C2)c1C(F)(F)F` (single isomer, unassigned) [Example 15, 1-[1-[5-Chloro-2-[4-[4-(2,2,2-trifluoroethyl)piperazin-1-yl]phenyl]phenyl]-3-piperidyl]-5-(trifluoromethyl)pyrazole-4-carboxylic acid] gave an MEC of 0.6 nM.
`O=C(O)c1cnn(C2CCCN(c3cc(Cl)ccc3-c3ccc(N4CCN(CC5CC(F)(F)C5)CC4)cc3)C2)c1C(F)(F)F` (single isomer, unassigned) [Example 20, 1-[1-[5-Chloro-2-[4-[4-[(3,3-difluorocyclobutyl)methyl]piperazin-1-yl]phenyl]phenyl]-3-piperidyl]-5-(trifluoromethyl)pyrazole-4-carboxylic acid hydrochloride] was tested, and the MEC (hydrochloride) was 1.0 nM and the EC50 was 3.6 nM.
`O=C(O)c1cnn(C2CCCN(c3cc(Cl)ccc3-c3ccc(N4CCN(C(=O)OCC5CC5)CC4)cc3)C2)c1C(F)(F)F` (single isomer, unassigned) [Example 60, 1-[1-[5-Chloro-2-[4-[4-(cyclopropylmethoxycarbonyl)piperazin-1-yl]phenyl]phenyl]-3-piperidyl]-5-(trifluoromethyl)pyrazole-4-carboxylic acid] was tested, and the MEC was 10.0 nM and the EC50 was 47.5 nM.
With `CC(C)C(=O)N1CCN(c2ccc(-c3ccc(Cl)cc3N3CCCC(n4ncc(C(=O)O)c4C(F)(F)F)C3)cc2)CC1` (single isomer, unassigned) [Example 38, 1-[1-[5-Chloro-2-[4-[4-(2-methylpropanoyl)piperazin-1-yl]phenyl]phenyl]-3-piperidyl]-5-(trifluoromethyl)pyrazole-4-carboxylic acid] the MEC was 3.0 nM and the EC50 was 15.5 nM.
`O=C(O)c1cnn(C2CCCN(c3cc(Cl)ccc3-c3ccc(N4CCN(CC5CC5C(F)(F)F)CC4)cc3)C2)c1C(F)(F)F` (single isomer, unassigned) [Example 33, 1-[1-[5-Chloro-2-[4-[4-[[2-(trifluoromethyl)cyclopropyl]methyl]piperazin-1-yl]phenyl]phenyl]-3-piperidyl]-5-(trifluoromethyl)pyrazole-4-carboxylic acid hydrochloride] was tested, and the MEC (hydrochloride) was 10.0 nM and the EC50 was 37.5 nM.
In the case of `O=C(O)c1cnn(C2CCCN(c3cc(Cl)ccc3-c3ccc(N4CCN(C(=O)C5CC5(F)F)CC4)cc3)C2)c1C(F)(F)F` (single isomer, unassigned) [Example 47, 1-[1-[5-Chloro-2-[4-[4-[2,2-difluorocyclopropanecarbonyl]piperazin-1-yl]phenyl]phenyl]-3-piperidyl]-5-(trifluoromethyl)pyrazole-4-carboxylic acid], the MEC is reported as 3.0 nM and the EC50 is reported as 17 nM.
With `N#CCCN1CCN(c2ccc(-c3ccc(Cl)cc3N3CCCC(n4ncc(C(=O)O)c4C(F)(F)F)C3)cc2)CC1` (single isomer, unassigned) [Example 5, 1-[1-[5-Chloro-2-[4-[4-(2-cyanoethyl)piperazin-1-yl]phenyl]phenyl]-3-piperidyl]-5-(trifluoromethyl)pyrazole-4-carboxylic acid] the MEC was 1.0 nM and the EC50 was 4.8 nM.
Molecule `O=C(O)c1cnn(C2CCCN(c3cc(Cl)ccc3-c3ccc(N4CCN(C(=O)OCC5CCC5)CC4)cc3)C2)c1C(F)(F)F` (single isomer, unassigned) [Example 61, 1-[1-[5-Chloro-2-[4-[4-(cyclobutylmethoxycarbonyl)piperazin-1-yl]phenyl]phenyl]-3-piperidyl]-5-(trifluoromethyl)pyrazole-4-carboxylic acid] has an MEC of 3.0 nM and an EC50 of 21 nM.
`O=C(O)c1cnn(C2CCCN(c3cc(Cl)ccc3-c3ccc(N4CCN(CC5CC(F)C5)CC4)cc3)C2)c1C(F)(F)F` (single isomer, unassigned) [Example 22, 1-[1-[5-Chloro-2-[4-[4-[(3-fluorocyclobutyl)methyl]piperazin-1-yl]phenyl]phenyl]-3-piperidyl]-5-(trifluoromethyl)pyrazole-4-carboxylic acid hydrochloride] gave an MEC of 2.0 nM and an EC50 of 11.4 nM.
In the case of `O=C(O)c1cnn(C2CCCN(c3cc(Cl)ccc3-c3ccc(N4CCN(CC5CC(F)(F)C5)CC4)cc3)C2)c1C(F)(F)F` (single isomer, unassigned) [Example 21, 1-[1-[5-Chloro-2-[4-[4-[(3,3-difluorocyclobutyl)methyl]piperazin-1-yl]phenyl]phenyl]-3-piperidyl]-5-(trifluoromethyl)pyrazole-4-carboxylic acid hydrochloride], the MEC (hydrochloride) is reported as 3.0 nM and the EC50 is reported as 27 nM.
Molecule `O=C(O)c1cnn(C2CCCN(c3cc(Cl)ccc3-c3ccc(N4CCN(CC(F)(F)F)CC4)nc3)C2)c1C(F)(F)F` (single isomer, unassigned) [Example 77, 1-[1-[5-Chloro-2-[6-[4-(2,2,2-trifluoroethyl)piperazin-1-yl]-3-pyridyl]phenyl]-3-piperidyl]-5-(trifluoromethyl)pyrazole-4-carboxylic acid] has an MEC of 30.0 nM and an EC50 of 82.5 nM.
`CCC(=O)N1CCN(c2ccc(-c3ccc(Cl)cc3N3CCCC(n4ncc(C(=O)O)c4C(F)(F)F)C3)cc2)CC1` (single isomer, unassigned) [Example 37, 1-[1-[5-Chloro-2-[4-(4-propanoylpiperazin-1-yl)phenyl]phenyl]-3-piperidyl]-5-(trifluoromethyl)pyrazole-4-carboxylic acid] showed an MEC of 3.0 nM and an EC50 of 15.5 nM.
Molecule `O=C(O)c1cnn(C2CCCN(c3cc(Cl)ccc3-c3ccc(N4CCN(CCC(F)(F)F)CC4)cc3)C2)c1C(F)(F)F` (single isomer, unassigned) [Example 17, 1-[1-[5-Chloro-2-[4-[4-(3,3,3-trifluoropropyl)piperazin-1-yl]phenyl]phenyl]-3-piperidyl]-5-(trifluoromethyl)pyrazole-4-carboxylic acid hydrochloride] has an MEC of under 0.3 nM and an EC50 of 1.4 nM.
Work on `O=C(O)c1cnn(C2CCCN(c3cc(Cl)ccc3-c3ccc(N4CCN(CC5CC56CC6)CC4)cc3)C2)c1C(F)(F)F` (single isomer, unassigned) [Example 30, 1-[1-[5-Chloro-2-[4-[4-(spiro[2.2]pentan-2-ylmethyl)piperazin-1-yl]phenyl]phenyl]-3-piperidyl]-5-(trifluoromethyl)pyrazole-4-carboxylic acid hydrochloride] yielded an MEC of 3.0 nM and an EC50 of 8.9 nM.
`CC(C)OC(=O)N1CCN(c2ccc(-c3ccc(Cl)cc3N3CCCC(n4ncc(C(=O)O)c4C(F)(F)F)C3)cc2)CC1` (single isomer, unassigned) [Example 56, 1-[1-[5-Chloro-2-[4-(4-isopropoxycarbonylpiperazin-1-yl)phenyl]phenyl]-3-piperidyl]-5-(trifluoromethyl)pyrazole-4-carboxylic acid] showed an MEC of 3.0 nM and an EC50 of 18 nM.
